# Peptide text beside a SMILES is read from it. * marks the point of attachment. Cbz = O=C(OCc1ccccc1)*
# Molecular target: T1, CARM1 (Homo sapiens, UniProt Q86X55)
# T1 sequence (Q86X55 1-608): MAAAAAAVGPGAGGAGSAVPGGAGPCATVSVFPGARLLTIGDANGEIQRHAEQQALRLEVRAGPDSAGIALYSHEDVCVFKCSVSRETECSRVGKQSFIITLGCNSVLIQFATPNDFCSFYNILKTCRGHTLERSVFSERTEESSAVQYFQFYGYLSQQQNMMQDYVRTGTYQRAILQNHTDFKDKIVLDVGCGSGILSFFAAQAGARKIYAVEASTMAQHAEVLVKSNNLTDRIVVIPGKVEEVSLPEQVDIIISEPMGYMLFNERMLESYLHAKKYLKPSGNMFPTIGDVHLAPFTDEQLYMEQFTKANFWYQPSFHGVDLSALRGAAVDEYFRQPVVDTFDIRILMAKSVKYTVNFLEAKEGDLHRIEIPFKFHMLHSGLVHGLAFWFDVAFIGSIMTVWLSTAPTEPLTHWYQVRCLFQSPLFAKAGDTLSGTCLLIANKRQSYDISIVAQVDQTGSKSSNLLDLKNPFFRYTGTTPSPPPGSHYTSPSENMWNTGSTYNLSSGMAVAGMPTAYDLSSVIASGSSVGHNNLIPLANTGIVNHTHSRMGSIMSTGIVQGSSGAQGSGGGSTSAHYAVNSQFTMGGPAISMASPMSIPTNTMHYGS
# Experiment: CARM1 degradation by western blot in MCF7 cells
# Format: cell-based
# Parameters: Cell lysates were collected and the CARM1 levels were detected by western blots; endogenous in cells; host or cells: MCF7
# Settings: 0.5 μM, 24 h
# Experimental: Based on the structure of TPVC3, CARM1 degraders with stable and flexible alkyl linkages 2a-e were designed and synthesized. Degrader 2b bears the same linker length as TPVC3, while 2a has one less carbon. However, we also changed the hydrolytic labile C═N double bond, which is part of the acylhydrazone motif, in TPVC3 to a C—C bond in compound 2b. This change may influence the required optimal linker length. […] Western blot assays were performed to evaluate the CARM1 degradation activity of the compounds after treating MCF7 cells with these degraders at two concentrations (0.5 and 1.0 μM) for 24 h. […] It has one less carbon atom than 2a in terms of length. […] It has the same linker length as 2d.
# The treatment dose and time were determined based on time-course and dose titration experiments (FIG. 4B-4C).
# Western Blot Assay. Cells were harvested and washed with Dulbecco's phosphate-buffered saline (PBS), then lysed with 1×RIPA lysis buffer (50 mM Tris pH 7.5, 150 mM NaCl, 1% NP-40, 0.5% sodium deoxycholate, and 0.1% sodium dodecyl sulfate) supplemented with 1 mM phenylmethylsulfonyl fluoride, 10 μg/mL aprotinin, 1 μM leupeptin, and 10 μg/mL pepstatin on ice for 20 min. The supernatant was collected after spinning down at 15000 RPM at 4 degrees Celsius for 10 min. The concentration of whole lysates was quantified using a Bradford assay. 50-75 μg of cell lysates was boiled in 4× Laemmli Loading Dye and boiled at 100 degrees Celsius for 10 min. 25 μg were run in 8% SDS-PAGE gels and transferred to nitrocellulose membranes. Blots were blocked in 5% skim milk in PBST [PBS and 0.1% Tween 20] for 45 min, then incubated with primary antibodies at 4 degrees Celsius overnight. Blots were washed in PBST for 30 min, then incubated with horseradish peroxidase-linked secondary antibodies (Jackson ImmunoResearch) for 1 hr. Afterwards, blots were washed in PBST for 15-30 min, then treated with chemiluminescent ECL reagent and imaged with the ChemiDoc Imaging System (Bio-Rad) or Azure 600 (Azure Biosystems). Expression levels of the indicated proteins were probed by the following antibodies: anti-CARM1, anti-me-BAF155, anti-me-PABP1, anti-PABP1,^7 anti-BAF155 (D7F8S, Cell Signaling Technology), anti-PRMT1 (Bethyl), anti-PRMT6 (D-5, Santa Cruz Biotechnology), anti-β-Actin (ABclonal Technology, Sigma-Aldrich), anti-Hsp90 (H-114, Santa Cruz Biotechnology).
row,Structure (SMILES),CARM1 degradation activity
1,"CNCCN1CCC(c2cc(CN(C)C(=O)c3cccc(Oc4ccc(CC(=O)N5CCC(CN6CCC(CN7CCN(CC(=O)N[C@H](C(=O)N8C[C@H](O)C[C@H]8C(=O)N[C@@H](C)c8ccc(-c9scnc9C)cc8)C(C)(C)C)CC7)CC6)CC5)cc4)c3)ccn2)CC1 [Compound 3d, (2S,4R)-1-((S)-3,3-dimethyl-2-(2-(4-((1-((1-(2-(4-(3-(methyl((2-(1-(2-(methylamino)ethyl)piperidin-4-yl)pyridin-4-yl)methyl)carbamoyl)phenoxy)phenyl)acetyl)piperidin-4-yl)methyl)piperidin-4-yl)methyl)piperazin-1-yl)acetamido)butanoyl)-4-hydroxy-N—((S)-1-(4-(4-methylthiazol-5-yl)phenyl)ethyl)pyrrolidine-2-carboxamide]",significantly lower CARM1 degradation activities
2,"CNCCN1CCC(c2cc(CN(C)C(=O)c3cccc(Oc4ccc(C(=O)N5CCC(CN6CCC(CN7CCN(CC(=O)N[C@H](C(=O)N8C[C@H](O)C[C@H]8C(=O)N[C@@H](C)c8ccc(-c9scnc9C)cc8)C(C)(C)C)CC7)CC6)CC5)cc4)c3)ccn2)CC1 [Compound 3c, (2S,4R)-1-((S)-3,3-dimethyl-2-(2-(4-((1-((1-(4-(3-(methyl((2-(1-(2-(methylamino)ethyl)piperidin-4-yl)pyridin-4-yl)methyl)carbamoyl)phenoxy)benzoyl)piperidin-4-yl)methyl)piperidin-4-yl)methyl)piperazin-1-yl)acetamido)butanoyl)-4-hydroxy-N—((S)-1-(4-(4-methylthiazol-5-yl)phenyl)ethyl)pyrrolidine-2-carboxamide]",significantly lower CARM1 degradation activities

# Same assay, conditions: 0.5 and 1.0 μM, 24 h
row,Structure (SMILES),"CARM1 degradation activity, alkyl-linker degraders"
1,"CNCCN1CCC(c2cc(CN(C)C(=O)c3cccc(Oc4ccc(OCC(=O)NCCc5ccc(OCCCCCC(=O)N[C@H](C(=O)N6C[C@H](O)C[C@H]6C(=O)N[C@@H](C)c6ccc(-c7scnc7C)cc6)C(C)(C)C)cc5)cc4)c3)ccn2)CC1 [Compound 2d, (2S,4R)-1-((S)-3,3-dimethyl-2-(6-(4-(2-(2-(4-(3-(methyl((2-(1-(2-(methylamino)ethyl)piperidin-4-yl)pyridin-4-yl)methyl)carbamoyl)phenoxy)phenoxy)acetamido)ethyl)phenoxy)hexanamido)butanoyl)-4-hydroxy-N—((S)-1-(4-(4-methylthiazol-5-yl)phenyl)ethyl)pyrrolidine-2-carboxamide]",stronger CARM1 degradation activities
2,"CNCCN1CCC(c2cc(CN(C)C(=O)c3cccc(Oc4ccc(OCC(=O)NCc5ccc(OCCCC(=O)N[C@H](C(=O)N6C[C@H](O)C[C@H]6C(=O)N[C@@H](C)c6ccc(-c7scnc7C)cc6)C(C)(C)C)cc5)cc4)c3)ccn2)CC1 [Compound 2a, (2S,4R)-1-((S)-3,3-dimethyl-2-(4-(4-((2-(4-(3-(methyl((2-(1-(2-(methylamino)ethyl)piperidin-4-yl)pyridin-4-yl)methyl)carbamoyl)phenoxy)phenoxy)acetamido)methyl)phenoxy)butanamido)butanoyl)-4-hydroxy-N—((S)-1-(4-(4-methylthiazol-5-yl)phenyl)ethyl)pyrrolidine-2-carboxamide]","2d and 2e showed stronger CARM1 degradation activities than 2a, 2b, and 2c"
3,"CNCCN1CCC(c2cc(CN(C)C(=O)c3cccc(Oc4ccc(OCC(=O)NCCc5ccc(OCCCCCCC(=O)N[C@H](C(=O)N6C[C@H](O)C[C@H]6C(=O)N[C@@H](C)c6ccc(-c7scnc7C)cc6)C(C)(C)C)cc5)cc4)c3)ccn2)CC1 [Compound 2e, (2S,4R)-1-((S)-3,3-dimethyl-2-(7-(4-(2-(2-(4-(3-(methyl((2-(1-(2-(methylamino)ethyl)piperidin-4-yl)pyridin-4-yl)methyl)carbamoyl)phenoxy)phenoxy)acetamido)ethyl)phenoxy)heptanamido)butanoyl)-4-hydroxy-N—((S)-1-(4-(4-methylthiazol-5-yl)phenyl)ethyl)pyrrolidine-2-carboxamide]",stronger CARM1 degradation activities
4,"CNCCN1CCC(c2cc(CN(C)C(=O)c3cccc(Oc4ccc(OCC(=O)NCCc5ccc(OCCCCC(=O)N[C@H](C(=O)N6C[C@H](O)C[C@H]6C(=O)N[C@@H](C)c6ccc(-c7scnc7C)cc6)C(C)(C)C)cc5)cc4)c3)ccn2)CC1 [Compound 2c, (2S,4R)-1-((S)-3,3-dimethyl-2-(5-(4-(2-(2-(4-(3-(methyl((2-(1-(2-(methylamino)ethyl)piperidin-4-yl)pyridin-4-yl)methyl)carbamoyl)phenoxy)phenoxy)acetamido)ethyl)phenoxy)pentanamido)butanoyl)-4-hydroxy-N—((S)-1-(4-(4-methylthiazol-5-yl)phenyl)ethyl)pyrrolidine-2-carboxamide]","2d and 2e showed stronger CARM1 degradation activities than 2a, 2b, and 2c"
5,"CNCCN1CCC(c2cc(CN(C)C(=O)c3cccc(Oc4ccc(OCC(=O)NCCc5ccc(OCCCC(=O)N[C@H](C(=O)N6C[C@H](O)C[C@H]6C(=O)N[C@@H](C)c6ccc(-c7scnc7C)cc6)C(C)(C)C)cc5)cc4)c3)ccn2)CC1 [Compound 2b, (2S,4R)-1-((S)-3,3-dimethyl-2-(4-(4-(2-(2-(4-(3-(methyl((2-(1-(2-(methylamino)ethyl)piperidin-4-yl)pyridin-4-yl)methyl)carbamoyl)phenoxy)phenoxy)acetamido)ethyl)phenoxy)butanamido)butanoyl)-4-hydroxy-N—((S)-1-(4-(4-methylthiazol-5-yl)phenyl)ethyl)pyrrolidine-2-carboxamide]","2d and 2e showed stronger CARM1 degradation activities than 2a, 2b, and 2c"

# Molecular target: T1, CARM1
# Experiment: CARM1 degradation by western blot in MCF7 cells
# Format: cell-based
# Parameters: Cell lysates were collected and the CARM1 levels were detected by western blots; endogenous in cells; host or cells: MCF7
# Settings: MCF7 cells, 0.5 μM 3b, 24 h; 7.5 μM MG132, 20 μM VH-032, 2 μM MLN4924, 10 μM TP-064
row,Structure (SMILES),Effect of competitor/inhibitor on 3b-induced CARM1 degradation
1,"CC(=O)N[C@H](C(=O)N1C[C@H](O)C[C@H]1C(=O)NCc1ccc(-c2scnc2C)cc1)C(C)(C)C [VH-032, reference compound]",abrogated 3b-induced CARM1 degradation
2,"CC(C)C[C@@H](C=O)NC(=O)[C@H](CC(C)C)NC(=O)[C@H](CC(C)C)NC(=O)OCc1ccccc1 [MG132, reference compound] (Cbz-Leu-Leu-Leu-aldehyde)",abrogated 3b-induced CARM1 degradation
3,"NS(=O)(=O)OC[C@@H]1C[C@@H](n2ccc3c(N[C@H]4CCc5ccccc54)ncnc32)C[C@@H]1O [MLN492437, reference compound]",abrogated 3b-induced CARM1 degradation

# — patent publication US20250222120A1, “SYNTHESIS OF NOVEL SMALL MOLECULE CARM1 DEGRADERS, COMPOUNDS FORMED THEREBY, AND PHARMACEUTICAL COMPOSITIONS CONTAINING THEM” (Wisconsin Alumni Research Foundation, priority 2024, published 2025)
